Columns and labels:
Assay type in all cases: in vivo
Septoria nodorum = experiment: Test C: preventive spray on wheat seedlings, Septoria glume blotch, visual disease rating; details: 200 ppm test suspension, Septoria nodorum inoculated the day after spraying; for pest or weed control at 200 ppm: Parastagonospora nodorum, 264 h
Experimental: General protocol for preparing test suspensions for Tests A-G: the test compounds were first dissolved in acetone in an amount equal to 3% of the final volume and then suspended at the desired concentration (in ppm) in acetone and purified water (50/50 mix by volume) containing 250 ppm of the surfactant Trem® 014 (polyhydric alcohol esters). The resulting test suspensions were then used in Tests A-G. Each test was conducted in triplicate, and the results were averaged. Spraying a 200 ppm test suspension to the point of run-off on the test plants was the equivalent of a rate of 800 g/ha. Unless otherwise indicated, the rating values indicate a 200 ppm test suspension was used. (An asterisk “*” next to the rating value indicates a 40 ppm test suspension was used.) The test suspension was sprayed to the point of run-off on wheat seedlings. The following day the seedlings were inoculated with a spore suspension of Septoria nodorum (the causal agent of Septoria glume blotch) and incubated in a saturated atmosphere at 24° C. for 48 h, and then moved to a growth chamber at 20° C. for 9 days, after which time visual disease ratings were made. Results for Tests A-G are given in Table A. In the Table, a rating of 100 indicates 100% disease control and a rating of 0 indicates no disease control (relative to the controls). A hyphen (-) indicates no test results.

Septoria tritici = experiment: Test D: preventive spray on wheat seedlings, wheat leaf blotch, visual disease rating; details: 200 ppm test suspension, Septoria tritici inoculated the day after spraying; for pest or weed control at 200 ppm: Zymoseptoria tritici, 504 h
Experimental: General protocol for preparing test suspensions for Tests A-G: the test compounds were first dissolved in acetone in an amount equal to 3% of the final volume and then suspended at the desired concentration (in ppm) in acetone and purified water (50/50 mix by volume) containing 250 ppm of the surfactant Trem® 014 (polyhydric alcohol esters). The resulting test suspensions were then used in Tests A-G. Each test was conducted in triplicate, and the results were averaged. Spraying a 200 ppm test suspension to the point of run-off on the test plants was the equivalent of a rate of 800 g/ha. Unless otherwise indicated, the rating values indicate a 200 ppm test suspension was used. (An asterisk “*” next to the rating value indicates a 40 ppm test suspension was used.) The test suspension was sprayed to the point of run-off on wheat seedlings. The following day the seedlings were inoculated with a spore suspension of Septoria tritici (the causal agent of wheat leaf blotch) and incubated in saturated atmosphere at 24° C. for 48 h. and then the seedlings were moved to a growth chamber at 20° C. for 19 additional days, after which time visual disease ratings were made. Results for Tests A-G are given in Table A. In the Table, a rating of 100 indicates 100% disease control and a rating of 0 indicates no disease control (relative to the controls). A hyphen (-) indicates no test results.

[1] = tested on: Blumeria graminis f. sp. tritici; experiment: Test G: preventive spray on wheat seedlings, wheat powdery mildew, visual disease rating;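 on all read-outs here: rated 8 days after spore dust inoculation at 20 °C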; details: 200 ppm test suspension, Blumeria graminis f. sp. tritici inoculated the day after spraying; for pest or weed control at 200 ppm: 192 h
Experimental: General protocol for preparing test suspensions for Tests A-G: the test compounds were first dissolved in acetone in an amount equal to 3% of the final volume and then suspended at the desired concentration (in ppm) in acetone and purified water (50/50 mix by volume) containing 250 ppm of the surfactant Trem® 014 (polyhydric alcohol esters). The resulting test suspensions were then used in Tests A-G. Each test was conducted in triplicate, and the results were averaged. Spraying a 200 ppm test suspension to the point of run-off on the test plants was the equivalent of a rate of 800 g/ha. Unless otherwise indicated, the rating values indicate a 200 ppm test suspension was used. (An asterisk “*” next to the rating value indicates a 40 ppm test suspension was used.) The test suspension was sprayed to the point of run-off on wheat seedlings. The following day the seedlings were inoculated with a spore dust of Blumeria graminis f. sp. tritici (also known as Erysiphe graminis f. sp. tritici, the causal agent of wheat powdery mildew) and incubated in a growth chamber at 20° C. for 8 days, after which time visual disease ratings were made. Results for Tests A-G are given in Table A. In the Table, a rating of 100 indicates 100% disease control and a rating of 0 indicates no disease control (relative to the controls). A hyphen (-) indicates no test results.

[2] = tested on: Puccinia recondita f. sp. tritici; experiment: Test F: preventive spray on wheat seedlings, wheat leaf rust, visual disease rating; details: 200 ppm test suspension, Puccinia recondita f. sp. tritici inoculated the day after spraying; for pest or weed control at 200 ppm: 168 h
Experimental: General protocol for preparing test suspensions for Tests A-G: the test compounds were first dissolved in acetone in an amount equal to 3% of the final volume and then suspended at the desired concentration (in ppm) in acetone and purified water (50/50 mix by volume) containing 250 ppm of the surfactant Trem® 014 (polyhydric alcohol esters). The resulting test suspensions were then used in Tests A-G. Each test was conducted in triplicate, and the results were averaged. Spraying a 200 ppm test suspension to the point of run-off on the test plants was the equivalent of a rate of 800 g/ha. Unless otherwise indicated, the rating values indicate a 200 ppm test suspension was used. (An asterisk “*” next to the rating value indicates a 40 ppm test suspension was used.) The test suspension was sprayed to the point of run-off on wheat seedlings. The following day the seedlings were inoculated with a spore suspension of Puccinia recondita f. sp. tritici (the causal agent of wheat leaf rust) and incubated in a saturated atmosphere at 20° C. for 24 h, and then moved to a growth chamber at 20° C. for 6 days, after which time visual disease ratings were made. Results for Tests A-G are given in Table A. In the Table, a rating of 100 indicates 100% disease control and a rating of 0 indicates no disease control (relative to the controls). A hyphen (-) indicates no test results.

Botrytis cinerea = experiment: Test A: preventive spray on tomato seedlings, tomato Botrytis, visual disease rating; details: 200 ppm test suspension, Botrytis cinerea inoculated the day after spraying; for pest or weed control at 200 ppm: 120 h
Experimental: General protocol for preparing test suspensions for Tests A-G: the test compounds were first dissolved in acetone in an amount equal to 3% of the final volume and then suspended at the desired concentration (in ppm) in acetone and purified water (50/50 mix by volume) containing 250 ppm of the surfactant Trem® 014 (polyhydric alcohol esters). The resulting test suspensions were then used in Tests A-G. Each test was conducted in triplicate, and the results were averaged. Spraying a 200 ppm test suspension to the point of run-off on the test plants was the equivalent of a rate of 800 g/ha. Unless otherwise indicated, the rating values indicate a 200 ppm test suspension was used. (An asterisk “*” next to the rating value indicates a 40 ppm test suspension was used.) The test suspension was sprayed to the point of run-off on tomato seedlings. The following day the seedlings were inoculated with a spore suspension of Botrytis cinerea (the causal agent of tomato Botrytis) and incubated in saturated atmosphere at 20° C. for 48 h, and then moved to a growth chamber at 24° C. for 3 additional days, after which time visual disease ratings were made. Results for Tests A-G are given in Table A. In the Table, a rating of 100 indicates 100% disease control and a rating of 0 indicates no disease control (relative to the controls). A hyphen (-) indicates no test results.

SMILES | Test C rating (disease control) (Septoria nodorum) [%] | Test D rating (disease control) (Septoria tritici) [%] | Test G rating (disease control) [1] [%] | Test F rating (disease control) [2] [%] | Test A rating (disease control) (Botrytis cinerea) [%] | pest or weed control at 200 ppm (Septoria nodorum) [%] | pest or weed control at 200 ppm (Septoria tritici) [%] | pest or weed control at 200 ppm [1] [%] | pest or weed control at 200 ppm [2] [%] | pest or weed control at 200 ppm (Botrytis cinerea) [%]
Cc1nn(C)c(OC(C)C)c1-c1ccc(F)cc1Cl [Compound 31] | 0 | 0 | 0 | 22 | 0 | – | – | – | – | –
Cc1nn(C)c(C(N)C(C)C)c1-c1c(F)cccc1Cl (stereo not drawn) [Compound 32] | 100 | 94 | 0 | 96 | 0 | – | – | – | – | –
CCC(C)C(N)c1c(-c2c(F)cccc2Cl)c(C)nn1C (stereo not drawn) [Compound 33, 4-(2-chloro-6-fluorophenyl)-1,3-dimethyl-α-(1-methylpropyl)-1H-pyrazole-5-methanamine] | – | – | – | – | – | 98 | 92 | 56 | 80 | 90
CCCCNc1c(-c2ccc(F)cc2Br)c(C)nn1C [Compound 36] | 100 | 50 | 0 | 100 | 67 | – | – | – | – | –
CCCCN(CCCC)c1c(-c2ccc(F)cc2Br)c(C)nn1C [Compound 37] | 99 | 0 | 0 | 99 | 0 | – | – | – | – | –
Cc1nn(C)c(NC(C)C)c1-c1ccc(F)cc1Br [Compound 38] | 100 | 46 | 0 | 100 | 100 | – | – | – | – | –
CCN(CC)c1c(-c2ccc(F)cc2Br)c(C)nn1C [Compound 39] | 64 | 0 | 0 | 68 | 0 | – | – | – | – | –
Cc1nn(C)c(N2CCOCC2)c1-c1ccc(F)cc1Cl [Compound 40, 4-[4-(2-chloro-4-fluorophenyl)-1,3-dimethyl-1H-pyrazol-5-yl]morpholine] | – | – | – | – | – | 0 | 100 | 94 | 99 | 100
Cc1nn(C)c(N2CCCCC2)c1-c1ccc(F)cc1Cl [Compound 41] | 0 | 88 | 0 | 44 | 99 | – | – | – | – | –
Cc1nn(C)c(N2CCCCC2C)c1-c1ccc(F)cc1Cl (stereo not drawn) [Compound 43] | 0 | 36 | 43 | 19 | 73 | – | – | – | – | –
Cc1nn(C)c(NCC(C)C)c1-c1ccc(F)cc1Br [Compound 44] | 59 | 0 | 0 | 90 | 0 | – | – | – | – | –
COCCNc1c(-c2ccc(F)cc2Br)c(C)nn1C [Compound 45] | 77 | 0 | 0 | 68 | 9 | – | – | – | – | –
COCCN(CCOC)c1c(-c2ccc(F)cc2Br)c(C)nn1C [Compound 46] | 86 | 0 | 13 | 68 | 0 | – | – | – | – | –
CCCCNc1c(-c2c(F)cc(F)cc2F)c(C)nn1C [Compound 47] | 95 | 57 | 0 | 98 | 30 | – | – | – | – | –
Cc1nn(C)c(NCC2CC2)c1-c1ccc(F)cc1Br [Compound 48] | 68 | 71 | 0 | 89 | 98 | – | – | – | – | –

From patent US20140288074A1, “FUNGICIDAL PYRAZOLES” (E I DU PONT DE NEMOURS AND COMPANY, priority 2013, published 2014)
